Data taken from patent US20230172206A1 (BASF SE, priority 2020, published 2023).

Legend:
[1] = tested on: Phakopsora pachyrhizi (F129L); experiment: Protective control of soybean rust on soybeans (PHAKPA P2); format: in vivo; conditions: for % PHAKPA (F129L) Disease level P2 at 4 ppm: protective P2, 4 ppm; for % PHAKPA (F129L) Disease level P2 at 16 ppm: protective P2, 16 ppm
[2] = tested on: Phakopsora pachyrhizi (F129L); experiment: Protective control of soybean rust on soybeans (PHAKPA P6); format: in vivo; conditions: for % PHAKPA (F129L) Disease level P6 at 4 ppm: protective P6, 4 ppm; for % PHAKPA (F129L) Disease level P6 at 16 ppm: protective P6, 16 ppm

SMILES | % PHAKPA (F129L) Disease level P2 at 4 ppm ([1]; soybean rust F129L isolate) [%] | % PHAKPA (F129L) Disease level P2 at 16 ppm ([1]; soybean rust F129L isolate) [%] | % PHAKPA (F129L) Disease level P6 at 4 ppm ([2]; soybean rust F129L isolate) [%] | % PHAKPA (F129L) Disease level P6 at 16 ppm ([2]; soybean rust F129L isolate) [%] | % PHAKPA (F129L) Disease level P2 at 4 ppm ([1]; F129L isolate) [%] | % PHAKPA (F129L) Disease level P2 at 16 ppm ([1]; F129L isolate) [%] | % PHAKPA (F129L) Disease level P6 at 4 ppm ([2]; F129L isolate) [%] | % PHAKPA (F129L) Disease level P6 at 16 ppm ([2]; F129L isolate) [%]
CNC(=O)/C(=N/OC)c1cccc(C)c1CO/N=C(\C)c1ccccc1C(C)(F)F [compound 372] | 85 | 26 | 85 | 16 |  |  |  | 
CNC(=O)/C(=N/OC)c1cccc(C)c1CO/N=C(\C)c1ccc(F)cc1Cl [compound 262] | 63 | 1 | 47 | 4 |  |  |  | 
CNC(=O)/C(=N/OC)c1cccc(C)c1CO/N=C(\C)c1ccccc1CC(C)C [compound 221] | 100 | 63 | 100 | 100 |  |  |  | 
CNC(=O)/C(=N/OC)c1cccc(C)c1CO/N=C(\C)c1cc(F)c(F)cc1C(F)(F)F [compound 410] |  |  |  |  | 9 | 0 | 35 | 1
CO/N=C(/C(=O)OC)c1cccc(C)c1CO/N=C(\C)c1ccccc1CC(F)(F)F [compound 222] | 100 | 57 | 100 | 93 |  |  |  | 
CNC(=O)/C(=N/OC)c1cccc(C)c1CO/N=C(\C)c1c(F)ccc(C(F)(F)F)c1NC [compound 233] | 100 | 57 | 87 | 27 |  |  |  | 
CNC(=O)/C(=C/OC)c1cccc(C)c1CO/N=C(\C)c1cccc(C(F)(F)F)c1 [compound 232] | 100 | 73 | 100 | 83 |  |  |  | 
CO/N=C(/C(=O)OC)c1cccc(C)c1CO/N=C(\C)c1ccc(OC(F)(F)F)cc1C [compound 259] | 80 | 17 | 93 | 40 |  |  |  | 
CNC(=O)/C(=N/OC)c1cccc(C)c1CO/N=C(\C)c1ccc(OC(F)(F)F)cc1F [compound 270] | 3 | 0 | 0 | 1 |  |  |  | 
CNC(=O)/C(=N/OC)c1cccc(C)c1CO/N=C(/c1ccccc1)C(F)(F)F [compound 458] |  |  |  |  | 93 | 57 | 83 | 50
CO/C=C(/C(=O)OC)c1cccc(C)c1CO/N=C(\C)c1ccccc1OC(F)(F)F [compound 462] |  |  |  |  | 37 | 6 | 55 | 10
CNC(=O)/C(=N/OC)c1cccc(C)c1CO/N=C(\C)c1ccc(Br)cc1C(F)(F)F [compound 258] | 32 | 7 | 73 | 8 |  |  |  | 
CNC(=O)/C(=N/OC)c1cccc(C)c1CO/N=C(\C)c1ccccc1C#N [compound 225] | 83 | 27 | 100 | 97 |  |  |  | 
CNC(=O)/C(=N/OC)c1cccc(C)c1CO/N=C(\C)c1c(F)ccc(F)c1C(F)(F)F [compound 359] | 100 | 37 | 100 | 43 |  |  |  | 
CO/N=C(/C(=O)OC)c1cccc(C)c1CO/N=C(\C)c1cccc(C2CC2)c1 [compound 297] | 90 | 37 | 87 | 37 |  |  |  | 
CO/N=C(/C(=O)OC)c1cccc(C)c1CO/N=C(\C)c1ccc(OC(F)(F)F)cc1Cl [compound 268] | 63 | 6 | 60 | 17 |  |  |  | 
CO/N=C(/C(=O)OC)c1cccc(C)c1CO/N=C(\C)c1ccc(Oc2ccc(Cl)cc2)cc1C(F)(F)F [compound 335] | 77 | 53 | 80 | 25 |  |  |  | 
CO/N=C(/C(=O)OC)c1cccc(C)c1CO/N=C(\C)c1cccc(C(C)(F)F)c1 [compound 302] | 47 | 4 | 47 | 3 |  |  |  | 
CO/N=C(/C(=O)OC)c1cccc(C)c1CO/N=C(\C)c1ccccc1C(C)C [compound 218] | 100 | 87 | 100 | 100 |  |  |  | 
CO/N=C(/C(=O)OC)c1cccc(C)c1CO/N=C(\C)c1cc(Cl)c(F)c(Cl)c1 [compound 246] | 40 | 15 | 77 | 7 |  |  |  | 
CO/N=C(/C(=O)OC)c1cccc(C)c1CO/N=C(\C)c1ccc(OC(F)(F)F)cc1F [compound 269] | 5 | 0 | 18 | 0 |  |  |  | 
CO/N=C(/C(=O)OC)c1cccc(C)c1CO/N=C(\C)c1ccc(Cl)c(Cl)c1C(F)(F)F [compound 429] |  |  |  |  | 83 | 50 | 67 | 43
CNC(=O)/C(=N/OC)c1cccc(C)c1CO/N=C(\C)c1ccc(C#N)cc1C(F)(F)F [compound 424] |  |  |  |  | 100 | 27 | 97 | 50
CNC(=O)/C(=N/OC)c1cccc(C)c1CO/N=C(\C)c1ccc(Cl)c(F)c1OC(F)(F)F [compound 449] |  |  |  |  | 33 | 10 | 57 | 9
CO/N=C(/C(=O)OC)c1cccc(C)c1CO/N=C(\C)c1ccc(OC)cc1OC(F)(F)F [compound 373] | 77 | 27 | 100 | 38 |  |  |  | 
CO/C=C(/C(=O)OC)c1cccc(C)c1CO/N=C(\C)c1c(Cl)ccc(Cl)c1OC(F)(F)F [compound 444] |  |  |  |  | 100 | 47 | 83 | 53
